Measured values reported in patent US20030050306A1, “Novel heteroaryl derivatives, their preparation and use” (H. Lundbeck A/S, priority 1999, published 2003).

Assays:
[1] = biological target: T1, cloned human 5-HT1A receptors (Homo sapiens, UniProt P08908); test: Inhibition of 3H-5-CT binding to human 5-HT1A receptors; conditions: cloned human 5-HT1A receptors in HeLa cells (HA7)
T1 construct: expressed in transfected cells; host or cells: HeLa cells (HA7)
T1 sequence (P08908 1-422): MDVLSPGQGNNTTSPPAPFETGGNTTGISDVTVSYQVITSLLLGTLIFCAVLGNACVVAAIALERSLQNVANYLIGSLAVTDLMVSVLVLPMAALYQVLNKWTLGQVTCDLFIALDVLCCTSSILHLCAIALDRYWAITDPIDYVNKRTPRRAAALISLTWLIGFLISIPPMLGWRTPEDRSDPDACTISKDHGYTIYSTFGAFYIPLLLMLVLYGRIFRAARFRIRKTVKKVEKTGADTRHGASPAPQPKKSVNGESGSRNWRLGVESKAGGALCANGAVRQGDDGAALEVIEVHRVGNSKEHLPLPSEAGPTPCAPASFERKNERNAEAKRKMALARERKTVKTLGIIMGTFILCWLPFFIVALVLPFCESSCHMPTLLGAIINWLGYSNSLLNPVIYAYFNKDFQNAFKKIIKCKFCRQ
Protocol: The affinity of the compounds of the invention to 5-HT1A receptors was determined by measuring the inhibition of binding of a radioactive ligand at 5-HT1A receptors as described in the following test:
Inhibition of ^3H-5-CT Binding to Human 5-HT1A Receptors
By this method the inhibition by drugs of the binding of the 5-HT1A agonist ^3H-5-carboxamido tryptamine (3H-5-CT) to cloned human 5-HT1A receptors stably expressed in transfected HeLa cells (HA7) (Fargin, A. et al, J. Biol. Chem., 1989, 264, 14848) is determined in vitro. The assay was performed as a modification of the method described by Harrington, M. A. et at, J. Pharmacol. Exp. Ther., 1994, 268, 1098. Human 5-HT1A receptors (40 μg of cell homogenate) were incubated for 15 minutes at 37° C. in 50 mM Tris buffer at pH 7.7 in the presence of ^3H-5-CT. Non-specific binding was determined by including 10 μM of metergoline. The reaction was terminated by rapid filtration through Unifilter GF/B filters on a Tomtec Cell Harvester. Filters were counted in a Packard Top Counter.

[2] = biological target: T2, human cloned dopamine D4.2 receptors (Homo sapiens, UniProt P21917, DEL265-296); test: Inhibition of the binding of 3H-YM-09151-2 to human dopamine D4 receptors; conditions: human cloned dopamine D4.2 receptors in CHO-cells
T2 construct: expressed in transfected cells; host or cells: CHO cells
T2 sequence (P21917 with tags, fused parts or gaps DEL265-296): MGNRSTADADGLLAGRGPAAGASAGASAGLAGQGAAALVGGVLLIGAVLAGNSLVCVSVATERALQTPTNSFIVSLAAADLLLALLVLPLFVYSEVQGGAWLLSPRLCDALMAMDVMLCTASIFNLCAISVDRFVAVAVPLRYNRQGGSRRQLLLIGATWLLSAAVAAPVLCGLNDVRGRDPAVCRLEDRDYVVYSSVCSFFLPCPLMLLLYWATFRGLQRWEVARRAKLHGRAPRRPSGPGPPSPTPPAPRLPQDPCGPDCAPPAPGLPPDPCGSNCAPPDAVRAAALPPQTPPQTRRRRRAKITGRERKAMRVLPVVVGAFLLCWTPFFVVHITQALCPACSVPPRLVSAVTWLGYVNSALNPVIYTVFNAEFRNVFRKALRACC
Protocol: The compounds of the invention have also been tested for their affinity to dopamine D4 receptors in the following test.
Inhibition of the Binding of ^3H-YM-09151-2 to Human Dopamine D4 Receptors
By this method the inhibition by drugs of the binding of [^3H]YM-09151-2 (0.06 nM) to membranes of human cloned dopamine D4.2 receptors expressed in CHO-cells is determined in vitro. Method modified from NEN Life Science Products, Inc., technical data certificate PC2533-10/96.

Row | Compound | IC50 [1] | IC50 [2]
1 | 1-[2-(Bromo-trifluoromethyl-phenylsulfanyl)-ethyl]-4-(2,3-dihydro-benzo[1,4]dioxin-5-yl)-piperazine [Compound 3c] | 11 nM | 35 nM
2 | 1-[3-(Bromo-trifluoromethyl-phenylsulfanyl)-propyl]-4-(2,3-dihydro-benzo[1,4]dioxin-5-yl)-piperazine [Compound 5ap] | 6.2 nM | 6.3 nM
3 | Clc1cccc(Cl)c1OCCCN1CCN(c2cccc3c2OCCO3)CC1 [Compound 1b, 1-[3-(2,6-Dichloro-phenoxy)-propyl]-4-(2,3-dihydro-benzo[1,4]dioxin-5-yl)-piperazine] | 1.1 nM | 5.9 nM
4 | Fc1cc(F)c(OCCCN2CCN(c3cccc4c3OCCO4)CC2)c(F)c1 [Compound 1c, 1-(2,3-Dihydro-benzo[1,4]dioxin-5-yl)-4-[3-(2,4,6-trifluoro-phenoxy)-propyl]-piperazine] | 2 nM | 13 nM
5 | FC(F)(F)c1ccc(OCCCN2CCN(c3cccc4c3OCCO4)CC2)cc1 [Compound 2b, 1-(2,3-Dihydro-benzo[1,4]dioxin-5-yl)-4-[3-(4-trifluoromethyl-phenoxy)-propyl]-piperazine] | 15 nM | 12 nM
6 | Fc1ccc(SCCCN2CCN(c3cccc4ccsc34)CC2)c(Cl)c1 [Compound 2e, 1-Benzo[b]thiophen-7-yl-4-[3-(2-chloro-4-fluoro-phenylsulfanyl)-propyl]-piperazine] | – | 5.4 nM
7 | Clc1ccc(SCCN2CCN(c3cccc4c3OCCO4)CC2)cc1Cl [Compound 3a, 1-[2-(3,4-Dichloro-phenylsulfanyl)-ethyl]-4-(2,3-dihydro-benzof[, 4]dioxin-5-yl)-piperazine] | 76 nM | 5.4 nM
8 | Clc1cccc(Cl)c1SCCN1CCN(c2cccc3c2OCCO3)CC1 [Compound 3d, 1-[2-(2,6-Dichloro-phenylsulfanyl)-ethyl]-4-(2,3-dihydro-benzo[1,4]dioxin-5-yl)-piperazine] | 31 nM | 11 nM
9 | Fc1ccc(SCCCN2CCN(c3cccc4ccsc34)CC2)c(Cl)c1 [Compound 5ad, 1-Benzo[b]thiophen-7-yl-4-[3-(2-chloro-4-fluoro-phenylsulfanyl)-propyl]-piperazine] | – | 6.6 nM
10 | Fc1cc(Br)c(OCCCN2CCN(c3cccc4c3OCCO4)CC2)c(Br)c1 [Compound 5aj, 1-[3-(2,6-Dibromo-4-fluoro-phenoxy)-propyl]-4-(2,3-dihydro-benzo[1,4]dioxin-5-yl)-piperazine] | 3.4 nM | 13 nM
11 | CS(=O)(=O)c1cc(Cl)c(OCCCN2CCN(c3cccc4ccsc34)CC2)c(Cl)c1 [Compound 5ao, 1-Benzo[b]thiophen-7-yl-4-[3-(2,6-dichloro-4-methanesulfonyl-phenoxy)-propyl]-piperazine] | 3.8 nM | 68 nM
12 | Fc1cc(Cl)c(OCCCN2CCN(c3cccc4ccsc34)CC2)c(Cl)c1 [Compound 5au, 1-Benzo[b]thiophen-7-yl-4-[3-(2,6-dichloro-4-fluoro-phenoxy)-propyl]-piperazine] | 6.4 nM | 7.6 nM

Compounds with a lower IC50 [2], results first:

Row | IC50 [1] | IC50 [2] | Compound
13 | 10 nM | 1.1 nM | Clc1ccccc1OCCCN1CCN(c2cccc3c2OCCO3)CC1 [Compound 1a, 1-[3-(2-Chloro-phenoxy)-propyl]-4-(2,3-dihydro-benzo[1,4]dioxin-5-yl)-piperazine]
14 | 5.3 nM | 3 nM | COc1cc(F)ccc1OCCCN1CCN(c2cccc3c2OCCO3)CC1 [Compound 1d, 1-(2,3-Dihydro-benzo[1,4]dioxin-5-yl)-4-[3-(4-fluoro-2-methoxy-phenoxy)-propyl]-piperazine]
15 | 4.5 nM | 1.3 nM | Cc1cc(F)ccc1OCCCN1CCN(c2cccc3c2OCCO3)CC1 [Compound 1e, 1-(2,3-Dihydro-benzo[1,4]dioxin-5-yl)-4-[3-(4-fluoro-2-methyl-phenoxy)-propyl]-piperazine]
16 | 4.4 nM | 4 nM | Clc1ccc(OCCCN2CCN(c3cccc4c3OCCO4)CC2)cc1 [Compound 2a, 1-[3-(4-Chloro-phenoxy)-propyl]-4-(2,3-dihydro-benzo[1,4]dioxin-5-yl)-piperazine]
17 | 4 nM | 1.2 nM | Fc1ccccc1OCCCN1CCN(c2cccc3c2OCCO3)CC1 [Compound 2c, 1-(2,3-Dihydro-benzo[1,4]dioxin-5-yl)-4-[3-(2-fluoro-phenoxy)-propyl]-piperazine]
18 | 15 nM | 1.7 nM | N#Cc1ccccc1OCCCN1CCN(c2cccc3c2OCCO3)CC1 [Compound 2d, 2-{3-[4-(2,3-Dihydro-benzo[1,4]dioxin-5-yl)-piperazin-1-yl]-propoxy}-benzonitrile]
19 | 97 nM | 4.3 nM | Fc1ccc(SCCN2CCN(c3cccc4c3OCCO4)CC2)cc1 [Compound 3b, 1-(2,3-Dihydro-benzo[1,4]dioxin-5-yl)-4-[2-(4-fluoro-phenylsulfanyl)-ethyl]-piperazine]
20 | 2.8 nM | 1.3 nM | c1ccc(SCCCN2CCN(c3cccc4c3OCCO4)CC2)cc1 [Compound 4a, 1-(2,3-Dihydro-benzo[1,4]dioxin-5-yl)-4-(3-phenylsulfanyl-propyl)-piperazine]
21 | 4.9 nM | 0.53 nM | Fc1ccc(OCCCN2CCN(c3cccc4c3OCCO4)CC2)c(Br)c1 [Compound 5aa, 1-[3-(2-Bromo-4-fluoro-phenoxy)-propyl]-4-(2,3-dihydro-benzo[1,4]dioxin-5-yl)-piperazine]
22 | 1.9 nM | 2.1 nM | Clc1cccc(Cl)c1SCCCCN1CCN(c2cccc3c2OCCO3)CC1 [Compound 5ab, 1-[4-(2,6-Dichloro-phenylsulfanyl)-butyl]-4-(2,3-dihydro-benzo[1,4]dioxin-5-yl)-piperazine]
23 | 2.4 nM | 1.4 nM | Fc1ccc(SCCCN2CCN(c3cccc4c3OCCO4)CC2)c(Cl)c1 [Compound 5ac, 1-[3-(2-Chloro-4-fluoro-phenylsulfanyl)-propyl]-4-(2,3-dihydro-benzo[1,4]dioxin-5-yl)-piperazine]
24 | 7.4 nM | 3.1 nM | COc1c(Cl)cccc1SCCCCN1CCN(c2cccc3c2OCCO3)CC1 [Compound 5ag, 1-[4-(3-Chloro-2-methoxy-phenylsulfanyl)-butyl]-4-(2,3-dihydro-henzo[1,4]dioxin-5-yl)-piperazine]
25 | – | 2.9 nM | Fc1ccc(SCCCN2CCN(c3cccc4ccsc34)CC2)c(Cl)c1 [Compound 5ai, 1-Benzo[b]thiophen-7-yl-4-[3-(2-chloro-4-fluoro-phenylsulfanyl)-propyl]-piperazine]
26 | 2.2 nM | 3.4 nM | Fc1cc(Cl)c(OCCCN2CCN(c3cccc4c3OCCO4)CC2)c(Cl)c1 [Compound 5at, 1-[3-(2,6-Dichloro-4-fluoro-phenoxy)-propyl]-4-(2,3-dihydro-benzo[1,4]dioxin-5-yl)-piperazine]
27 | 5.1 nM | 1.4 nM | Cc1cccc(Cl)c1SCCCCN1CCN(c2cccc3c2OCCO3)CC1 [Compound 5av, 1-[4-(2-Chloro-6-methyl-phenylsulfanyl)-butyl]-4-(2,3-dihydro-benzo[1,4]dioxin-5-yl)-piperazine]
28 | 1.7 nM | 1.9 nM | Clc1cccc(Cl)c1SCCCN1CCN(c2cccc3c2OCCO3)CC1 [Compound 5aw, 1-[3-(2,6-Dichloro-phenylsulfanyl)-propyl]-4-(2,3-dihydro-benzo[1,4]dioxin-5-yl)-piperazine]
